From patent US10703764B2, “Benzopiperazine compositions as BET bromodomain inhibitors” (FORMA Therapeutics, Inc., priority 2013, dated 2020) come the findings set out here.

Experiment [1] deals with T1, BRD4 BD1 (Homo sapiens, UniProt O60885).
T1 construct: made in house
The experiment in a line: AlphaScreen binding assay, BRD4 Bromodomain 1. The method, boiled down: (§1)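 An AlphaScreen competition format was used with His-BRD4 BD1 or BD2 and biotin-H4 K5/8/12/16-acetyl peptide, each at matched final levels of 50 nM (BD1) or 100 nM (BD2). Incubation in HEPES/NaCl buffer with 0.1% BSA and 0.01% Triton X-100 ran ≥1 h before IC50 determination.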
For orientation: Bead proximity is the source of the signal in Alpha formats.

Experiment [2] addresses T2, BRD4 BD2 (Homo sapiens, UniProt O60885).
T2 construct: made in house
The experiment is described as follows: AlphaScreen binding assay, BRD4 Bromodomain 2. The method, boiled down: as §1

In experiment [3] the test system is MV4-11 cells. The experiment is described as follows: Oncology cell growth assay (3-day proliferation, CellTiter-Glo). It is filed as cell-based. Particulars: Homo sapiens, MV4-11, 72 h, AML cell line MV4-11, 72 hours, compounds grouped by IC50 range, read-out: MV4-11 IC50 (inhibition of proliferation, gIC50). The method, boiled down: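 Luminescence from CellTiter-Glo served as the growth read-out after MV4-11 cells (3000/well) were cultured with compound for 72 hours. Final concentrations spanned 10 to 0.0045 μM in 3-fold steps. gIC50 values were derived by four-parameter logistic fitting relative to DMSO and cell-free controls.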
A general note: ATP-based viability assays read luminescence as a measure of living cells.

Where only a bound is given, the exact number is not on record here.

For the compound `CC(=O)N1c2ccc(-c3cccc(S(N)(=O)=O)c3)cc2N(C(=O)OC(C)C)C[C@@H]1C` [Example I-1042], the IC50 in experiment [1] is 1000 to 10000 nM; in experiment [2], 50 to 500 nM; in experiment [3], 100 to 500 nM.
With `CC(=O)N1c2ccc(-c3cnn(Cc4ccnn4C)c3)cc2N(C(=O)OC(C)C)C[C@@H]1C` [Example I-680], the IC50 was in the range of 100 to 1000 nM in experiment [1], 50 to 500 nM in experiment [2] and 100 to 500 nM in experiment [3].
The corresponding values for `CC(=O)N1c2ccc(-c3cccc(S(N)(=O)=O)c3)cc2N(C(=O)c2ccco2)C[C@@H]1C` [Example I-841] are 1000 to 10000 nM, less than 50 nM and 100 to 500 nM.
On to `CC(=O)N1c2ccc(-c3cnn(C4CC4)c3)cc2N(C(=O)Oc2cccc(C(F)(F)F)c2)C[C@@H]1C` [Example I-259], for which the IC50 in experiment [1] was 1000 to 10000 nM; in experiment [2] it was less than 50 nM; in experiment [3], 100 to 500 nM.
In the case of `CC(=O)N1c2ccc(-c3ccc(S(=O)(=O)NCCO)cc3)cc2N(C(=O)OC2CCCCC2)C[C@@H]1C` [Example I-1217], the figures for the IC50 in experiment [1], in experiment [2] and in experiment [3] were 100 to 1000 nM, less than 50 nM and less than 100 nM, respectively.
The matching figures for `CC(=O)N1c2ccc(-c3cnn(CCS(C)(=O)=O)c3)cc2N(C(=O)Oc2cccnc2)C[C@@H]1C` [Example I-1279]: 100 to 1000 nM, 50 to 500 nM and 100 to 500 nM.
The corresponding values for `CC(=O)N1c2ccc(-c3cnn(CCO)c3)cc2N(C(=O)OCC(F)(F)F)C[C@@H]1C` [Example I-82, (S)-2,2,2-trifluoroethyl 4-acetyl-7-(1-(2-hydroxyethyl)-1H-pyrazol-4-yl)-3-methyl-3,4-dihydroquinoxaline-1(2H)-carboxylate] are greater than 10000 nM, greater than 500 nM and greater than 500 nM.
Consider `CC(=O)N1c2ccc(-c3cnc(N)cn3)cc2N(C(=O)OC(C)C)C[C@@H]1C` [Example I-471], for which the IC50 was in the range of 100 to 1000 nM in experiment [1], 50 to 500 nM in experiment [2] and 100 to 500 nM in experiment [3].
The corresponding values for `CC(=O)N1c2ccc(-c3cnn(C4COC4)c3)cc2N(C(=O)Oc2ccc(F)cc2)C[C@@H]1C` [Example I-85, 4-fluorophenyl (S)-4-acetyl-3-methyl-7-(1-(oxetan-3-yl)-1H-pyrazol-4-yl)-3,4-dihydroquinoxaline-1(2H)-carboxylate] are less than 100 nM, less than 50 nM and 100 to 500 nM.
The matching figures for `CC(=O)N1c2ccc(-c3cnn(C4CC4)c3)cc2N(C(=O)Oc2ccc3cccnc3c2)C[C@@H]1C` [Example I-1202]: 100 to 1000 nM, 50 to 500 nM and 100 to 500 nM.
The corresponding values for `CC(=O)N1c2ccc(-c3ccc(C(=O)N4CCNC(=O)C4)cc3)cc2N(C(=O)OC(C)C)C[C@@H]1C` [Example I-547] are 100 to 1000 nM, 50 to 500 nM and 100 to 500 nM.
Turning to `COC(=O)Nc1ccc2c(c1)N(C(C)=O)[C@@H](C)CN2C(=O)OC(C)C` [Example I-202, Isopropyl (S)-4-acetyl-6-((methoxycarbonyl)amino)-3-methyl-3,4-dihydro quinoxaline-1(2H)-carboxylate], the IC50 was greater than 10000 nM in experiment [1], greater than 500 nM in experiment [2] and greater than 500 nM in experiment [3].
Take `CC(=O)N1c2ccc(-c3ccc(C4(O)COC4)cc3)cc2N(C(=O)c2ccco2)C[C@@H]1C` [Example I-415]: the IC50 in experiment [1] was 100 to 1000 nM; in experiment [2] it was less than 50 nM; in experiment [3] it was 100 to 500 nM.
The corresponding values for `CC(=O)N1c2ccc(-c3ccc(C(=O)N4CCOCC4)cc3)cc2N(C(=O)c2ccco2)C[C@@H]1C` [Example I-283] are 1000 to 10000 nM, less than 50 nM and 100 to 500 nM.
The matching figures for `CCOC(=O)N1C[C@H](C)N(C(C)=O)c2ccc(-c3ccc(F)c(S(C)(=O)=O)c3)cc21` [Example I-1100]: 1000 to 10000 nM, 50 to 500 nM and greater than 500 nM.
